Our source for the RP-LC retention time values is the METLIN SMRT retention time set (Domingo-Almenara et al. 2019).

The series can be described thus: gradient 5% acetonitrile 3 min, to 50% in 2 min, to 85% in 15 min, held 3 min, 100 µL/min. Particulars: column: Zorbax Extend-C18 2.1 x 50 mm; eluents: water / acetonitrile, 0.1% formic acid. Summed up:
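Data were gathered over 3 months by HPLC coupled to a quadrupole time-of-flight mass spectrometer, operated in positive and negative ionization mode. Mixtures of ~100 pure standards ran on a Zorbax Extend-C18 column (2.1 × 50 mm, 1.8 μm) at 100 μL/min, with water and acetonitrile each containing 0.1% formic acid and dead and dwell volumes of 40 μL and 900 μL. Retention time was read from adduct peaks picked by computer and checked manually.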
`O=C1C2N=NN(Cc3nc(-c4ccccc4Br)no3)C2C(=O)N1c1ccc(F)cc1` (centres undefined) returned an RP-LC retention time of 960 s.

In turn, `O=C(NC1CC1)c1ccc(OCC2CCCN(C(=O)c3ccc(F)cc3F)C2)cc1` (centres undefined) yielded an RP-LC retention time of 848 s.

Regarding `CCc1ccccc1NC(=O)CN1C(=O)NC2(CCC(C)CC2)C1=O` (centres undefined), the RP-LC retention time came out at 698 s.

As for `O=c1cc(CSc2nnc(-c3cccc(Cl)c3)o2)nc2sccn12`, the RP-LC retention time stood at 832 s.

`COCC(=O)N1CCC(Oc2nccnc2N2CCOCC2)C1` (centres undefined) yielded an RP-LC retention time of 584 s.

`Cc1nc(-c2cn(C)c3ncccc23)sc1C(=O)Nc1cc(F)cc(F)c1` registered an RP-LC retention time of 1050 s.

Compound `Cc1cc(C)n2cc(CSc3nc4cc([N+](=O)[O-])ccc4s3)nc2n1` came in with an RP-LC retention time of 623 s.

In turn, `CCn1c(=O)c2c(cc(C)n2C)n(CC(=O)Nc2cc(Cl)ccc2OC)c1=O` showed an RP-LC retention time of 888 s.

Consider `Cc1ccc(-n2cc(C3=CCN(CC(=O)N4CCN(c5ccccn5)CC4)CC3)cn2)cc1`, for which the RP-LC retention time was 584 s.

In the case of `COc1ccc(NC(=O)Nc2cc(-c3cn4cccnc4n3)ccc2OC)cc1`, the RP-LC retention time is 651 s.

The compound `CCn1cc(S(=O)(=O)N2CCCC2c2nncn2Cc2ccncc2)cn1` (centres undefined) registered an RP-LC retention time of 553 s.

`O=C(c1ccc2c(c1)OCO2)N1CCN(Cc2nnnn2-c2ccc(F)c(F)c2)CC1` yielded an RP-LC retention time of 746 s.

`CC1CCN(CC2CCCCCN2C(=O)Nc2ccc3c(c2)OCCO3)CC1` (centres undefined) returned an RP-LC retention time of 684 s.

For `COc1nn(C)cc1C(=O)Nc1cccc(-c2cn3c(n2)SCC3)c1`, the RP-LC retention time amounted to 566 s.

As to `CCn1c(=O)c(N2CCC(NC(=O)NC)CC2)nc2ccccc21`, the RP-LC retention time came to 759 s.

In turn, `CCOc1ncccc1CNC(=O)C1CCC1` came in with an RP-LC retention time of 696 s.

Consider `CC(C)Oc1ccc(-c2noc(CN3N=NC4C(=O)N(c5ccc6c(c5)CCC6)C(=O)C43)n2)cc1` (centres undefined), for which the RP-LC retention time came out at 1180 s.

As to `O=C(N[C@@H]1CN(C(=O)C2CC2)CC[C@@H]1CO)C1CC1`, the RP-LC retention time is 576 s.

Compound `Cc1ccc2c(c1)C(C)(C)C(=O)N2CC(=O)N1CCN(c2ncccn2)CC1` returned an RP-LC retention time of 773 s.

Compound `Cc1ccc(NC(=O)NCCC2CCN(S(=O)(=O)c3ccc(F)cc3)CC2)cc1` showed an RP-LC retention time of 925 s.

`CCOc1ccc(S(=O)(=O)N2CCCC(C(=O)Nc3ccccc3)C2)cc1` (centres undefined) registered an RP-LC retention time of 999 s.

Regarding `COc1cccc(CNC2=NCCNC23CCN(S(=O)(=O)c2cc(C)c(C)cc2C)CC3)c1`, the RP-LC retention time is 836 s.

In turn, `O=C(c1cc(-c2cccnc2)n[nH]1)N1CCN(C(=O)c2ccc(Br)o2)CC1` gave an RP-LC retention time of 605 s.

Consider `Cc1onc(-c2ccc(Br)s2)c1C(=O)NCCCN1CCN(C)CC1`, for which the RP-LC retention time turned out to be 611 s.

For the compound `CCNC(=O)c1sc2nc(-c3cccc(F)c3)c(NCCOC)n2c1C`, the RP-LC retention time worked out at 800 s.

In turn, `Cc1sc2ccn(CC(C)C)c(=O)c2c1C(=O)N1CCN(c2ccccn2)CC1` gave an RP-LC retention time of 618 s.

In turn, `Cc1nn(-c2ccc(C(=O)N3CCN(c4ccccn4)CC3)cc2)c2c1C(=O)CCC2` registered an RP-LC retention time of 574 s.

Compound `Cc1ccc(CNC(=O)N2CC=C(c3cn(C(C)C)c4ncccc34)CC2)cc1` returned an RP-LC retention time of 958 s.

`COc1ccccc1-c1nc(Cn2nnc(-c3nc(-c4ccc(OC(C)C)cc4)no3)c2C)c(C)o1` had an RP-LC retention time of 1230 s.

`Cn1ncc2c3ccccc3n(CCCC(=O)NCCN3CCCCC3)c2c1=O` had an RP-LC retention time of 618 s.

`COCCCNC(=O)c1cc(-c2ccc(OC)cc2)nc2n[nH]c(-c3ccccc3)c12`: the RP-LC retention time is 789 s.

On to `CCc1cccc(C)c1Nc1c(-c2ccc(C)cc2)nc2ncccn12`, for which the RP-LC retention time amounted to 878 s.

As to `COc1cc(OC)cc(-c2nc(-c3nnn(Cc4ccccc4)c3C)no2)c1`, the RP-LC retention time worked out at 1060 s.

On to `CCC(C)n1c(C)cc(=O)n1C(C)CC` (centres undefined), for which the RP-LC retention time amounted to 759 s.

With `CCNC(=O)c1cc(C)nc2c(C)cc(C)cc12`, the RP-LC retention time came to 594 s.

Compound `CCc1cccc(NC(=O)C2(C)Oc3cccnc3N(C(C)C)C2=O)c1` (centres undefined) displayed an RP-LC retention time of 1120 s.

Compound `CCOC(=O)Cc1ccc(NC(=O)N2CCCn3nc(-c4cccs4)cc3C2)cc1` returned an RP-LC retention time of 849 s.

Compound `CCOC(=O)c1ccc(NC(=O)c2ccccc2-c2ccccc2C(=O)O)cc1` displayed an RP-LC retention time of 842 s.

Regarding `O=C(Cc1ccc([N+](=O)[O-])cc1)NCc1ccc2[nH]c3c(c2c1)CCCC3`, the RP-LC retention time was 849 s.

In the case of `O=C(Nc1cnc(-c2ccccc2)nc1)c1ccccc1C(F)(F)F`, the RP-LC retention time came out at 970 s.

The compound `O=C(Nc1ccc2c(c1)OCCO2)N1CCN(c2nc3cccnc3n(Cc3ccccc3)c2=O)CC1` gave an RP-LC retention time of 1000 s.

Compound `CC(=O)N1c2ccc(S(=O)(=O)N3CCCCC3)cc2CC1C(=O)Nc1ccc(C)c(C)c1` (centres undefined) returned an RP-LC retention time of 966 s.

Consider `O=C(Nc1ccc2c(c1)OCCO2)c1cc(-c2ccccn2)n[nH]1`, for which the RP-LC retention time was 648 s.

`CCCN(CC1CCOC1)C(=O)Nc1cccc(Br)c1` (centres undefined) came in with an RP-LC retention time of 876 s.

For `COc1ccc(NC(=O)Cn2cc(C(=O)N3CCCCC3)c(=O)c3ccc(C)nc32)cc1`, the RP-LC retention time came to 713 s.

On to `COc1ccc(SCCc2ccncc2)cc1`, for which the RP-LC retention time amounted to 662 s.

For `CCN1CCN(C(=O)CSCc2nc3cccnc3n2C2CCCCC2)CC1`, the RP-LC retention time amounted to 625 s.

In the case of `Cc1sc(C)c(S(=O)(=O)N2CCCCCC2)c1-c1cc(C(F)(F)F)on1`, the RP-LC retention time amounted to 1200 s.

Take `CCCC(=O)Nc1ccc2c(c1)C(=O)CC(c1ccc3c(c1)OCO3)O2` (centres undefined): the RP-LC retention time turned out to be 808 s.

Consider `COC(=O)C1=C(CN2CCN(C)CC2)NC(=O)NC1c1ccc(Cl)cc1` (centres undefined), for which the RP-LC retention time was found to be 604 s.

Turning to `COc1ccc(Cc2nc3ccc(C(=O)NCc4ccc(C)o4)cc3o2)cc1`, the RP-LC retention time was 918 s.

`CC(C)CN1Cc2ccccc2-n2ccnc2C12CCN(C(=O)c1ccn[nH]1)CC2` had an RP-LC retention time of 615 s.

`Cc1nnc(N2CCCC(C(=O)N3CCN(c4ccccc4)CC3)C2)c2nn(-c3ccccc3)c(C)c12` (centres undefined) displayed an RP-LC retention time of 759 s.

With `Cc1ccc(C(=O)NCCc2nc3cccnc3n2C(C)C)cc1`, the RP-LC retention time was found to be 666 s.

In turn, `Fc1ccc(-c2noc(-c3ccc(N4CCC5(CC4)OCCO5)nc3)n2)cc1` displayed an RP-LC retention time of 1180 s.

As to `CCn1cc(S(=O)(=O)Nc2ccc(C)c(F)c2)c2cccnc21`, the RP-LC retention time was 799 s.

Take `Cc1c(NS(C)(=O)=O)cccc1-c1nc2cccnc2s1`: the RP-LC retention time worked out at 682 s.

`O=C(COc1ccc(NC(=O)C2CC2)cn1)NC1CCN(Cc2ccccc2)CC1` came in with an RP-LC retention time of 590 s.

`COC(=O)c1cc2c(=O)n(-c3ccc(Cl)c(C(F)(F)F)c3)ccc2nc1C` gave an RP-LC retention time of 992 s.

`O=C(Cc1ccc(Cl)cc1)NCc1nc(-c2ccc3oc(-c4ccccc4)nc3c2)no1` came in with an RP-LC retention time of 1110 s.

In turn, `COc1ccc(-c2nnc(SCc3ccc(Br)cc3)o2)cc1` gave an RP-LC retention time of 1170 s.

As to `CCOc1ccc(CNS(=O)(=O)c2cc(-c3c(C)noc3NC(C)=O)ccc2OC)cc1`, the RP-LC retention time was 785 s.

`CCN(CC)C(=O)Cn1ccc(NC(C)=O)nc1=O` displayed an RP-LC retention time of 602 s.

In the case of `COc1ccc(-c2ncc3c(n2)CCN(C(=O)Cc2ccccc2Cl)C3)cc1`, the RP-LC retention time is 989 s.

`Cc1csc(NC(=O)C2CC(=O)N(c3n[nH]c4ccccc34)C2)n1` (centres undefined) came in with an RP-LC retention time of 665 s.

In turn, `COC(=O)c1ccc2nc(NC(=O)C3CCCCC3)sc2c1` gave an RP-LC retention time of 932 s.

The compound `CCc1nc(-c2csc(S(=O)(=O)N3CCCC(C(=O)Nc4cc(C)ccc4C)C3)c2)no1` (centres undefined) registered an RP-LC retention time of 1090 s.

On to `Fc1ccccc1CSc1ccc2nnc(-c3cccnc3)n2n1`, for which the RP-LC retention time was found to be 680 s.

In turn, `O=c1c2sccc2n(Cc2nc(-c3ccc(Br)cc3)no2)c(=O)n1-c1ccc(F)cc1` gave an RP-LC retention time of 1100 s.

Take `COc1ccc(CC(=O)Nc2nnc(SCc3ccccc3F)s2)cc1OC`: the RP-LC retention time came to 824 s.

As for `CCN(CC)C(=O)N1CC(Oc2cccc(-c3nc(C)no3)c2)C1`, the RP-LC retention time was determined as 873 s.

Turning to `O=C(Nc1nnc(C2CC(=O)N(c3ccc(F)cc3)C2)o1)c1ccc(Cl)cc1` (centres undefined), the RP-LC retention time amounted to 771 s.

The compound `CC[C@H](C)C(=O)O[C@H]1CCC=C2C=C[C@H](C)[C@H](CC[C@@H](O)C[C@@H](O)CC(=O)O)[C@H]21` displayed an RP-LC retention time of 910 s.

In turn, `O=C(Nc1ccc(F)cc1F)C1CCN(S(=O)(=O)c2cc(-c3noc(C4CC4)n3)cs2)CC1` returned an RP-LC retention time of 997 s.

`Cc1ccc(CNc2c(-c3cccc(Cl)c3)nc3ncccn23)cc1` gave an RP-LC retention time of 901 s.

`CCCCS(=O)(=O)N1CC(c2noc(-c3cccnc3)n2)C2(CCOCC2)C1` (centres undefined) displayed an RP-LC retention time of 788 s.

Take `C=CC(=O)Nc1cccc(Oc2nc(Nc3ccc(N4CCN(C)CC4)cc3OC)ncc2Cl)c1`: the RP-LC retention time turned out to be 718 s.

Consider `Cc1cc2nc(C(=O)Nc3cc(F)cc(F)c3)cc(C)n2n1`, for which the RP-LC retention time is 1050 s.

Turning to `CN(Cc1ccccc1)C(=O)Cn1cnc2nc3c(cc2c1=O)CCCC3`, the RP-LC retention time amounted to 725 s.
